{"source": "ChEMBL document CHEMBL4190311", "about": "“Discovery of cycloalkyl-fused N-thiazol-2-yl-benzamides as tissue non-specific glucokinase activators: Design, synthesis, and biological evaluation” (Eur J Med Chem, 2017)", "key": {"Hexokinase-4 [1]": {"target": "T1, Hexokinase-4 (Homo sapiens, UniProt P35557)", "T1 sequence (P35557 whole entry)": "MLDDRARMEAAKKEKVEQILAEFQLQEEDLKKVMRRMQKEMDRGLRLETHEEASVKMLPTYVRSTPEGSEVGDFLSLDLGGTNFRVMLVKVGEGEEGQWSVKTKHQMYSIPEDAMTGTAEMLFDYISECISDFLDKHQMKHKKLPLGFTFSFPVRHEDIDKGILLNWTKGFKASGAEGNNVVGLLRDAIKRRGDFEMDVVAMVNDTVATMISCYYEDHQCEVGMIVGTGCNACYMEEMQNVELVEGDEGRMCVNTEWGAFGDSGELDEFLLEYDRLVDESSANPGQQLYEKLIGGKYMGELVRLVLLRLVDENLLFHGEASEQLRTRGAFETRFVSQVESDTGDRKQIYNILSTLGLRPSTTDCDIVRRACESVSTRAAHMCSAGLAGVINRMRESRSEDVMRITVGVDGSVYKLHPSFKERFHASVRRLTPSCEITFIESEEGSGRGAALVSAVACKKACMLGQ", "assay": "Activation of recombinant human liver glucokinase 2 assessed as […] in presence of 5 mM glucose by G6PDH coupled assay"}, "Mus musculus [2]": {"test_system": "Mus musculus", "assay": "Antidiabetic activity in db/db mouse BKS.Cg-Dock7m+/+ Leprdb/J assessed as reduction in HbA1c level at 15 to 60 mg/kg/day, po for 5 weeks", "format": "functional, organism-based"}, "Mus musculus [3]": {"test_system": "Mus musculus", "assay": "Toxicity in db/db mouse BKS.Cg-Dock7m+/+ Leprdb/J assessed as dyslipidemia by measuring effect on low density lipoprotein-cholesterol level at 15 to 60 mg/kg, po administered daily for 5 weeks", "format": "organism-based", "settings": "in vivo, 840 h"}, "Hexokinase-4 [4]": {"target": "T1, Hexokinase-4", "assay": "Activation of recombinant human liver glucokinase 2 assessed as assessed as reduction in Km for glucose in presence of 5 mM glucose by G6PDH coupled assay"}, "INS1(832/13) [5]": {"test_system": "INS1(832/13)", "assay": "Cytoprotection in rat INS1(832/13) cells assessed as reduction in streptozocin induced beta cells apoptosis after 20 hrs by MTT based spectrophotometric method", "format": "functional, cell-based", "settings": "INS-1 832/13, 20 h"}, "Mus musculus [6]": {"test_system": "Mus musculus", "assay": "Toxicity in db/db mouse BKS.Cg-Dock7m+/+ Leprdb/J assessed as dyslipidemia by measuring effect on high density lipoprotein-cholesterol level at 15 to 60 mg/kg, po administered daily for 5 weeks", "format": "organism-based", "settings": "in vivo, 840 h"}, "INS1(832/13) [7]": {"test_system": "INS1(832/13)", "assay": "Cytoprotection in rat INS1(832/13) cells assessed as reduction in streptozocin induced beta cells apoptosis after 20 hrs by MTT based spectrophotometric method relative to control", "format": "functional", "set-up": "scale not given: the % may be the effect or the level left"}, "Hepatocyte": {"test_system": "Hepatocyte", "assay": "Increase in glucose uptake in mouse primary hepatocytes assessed as glucose uptake level at 20 uM after 24 hrs by glucose oxidase method relative to control", "format": "functional"}, "[8]": {"assay": "Tmax in Sprague-Dawley rat at 10 mg/kg, po by LC-MS/MS analysis", "format": "ADME, organism-based", "settings": "in vivo"}, "Mus musculus [9]": {"test_system": "Mus musculus", "assay": "Antidiabetic activity in dosed db/db mouse BKS.Cg-Dock7m+/+ Leprdb/J assessed as reduction in glucose AUC level at 30 to 60 mg/kg/day, po for 5 weeks measured up to 120 mins after over night fasting at fourth week during OGTT method", "format": "functional, organism-based"}, "Mus musculus [10]": {"test_system": "Mus musculus", "assay": "Antidiabetic activity in db/db mouse BKS.Cg-Dock7m+/+ Leprdb/J assessed as reduction in fasting plasma glucose level at 15 to 60 mg/kg/day, po for 5 weeks", "format": "functional, organism-based"}, "Mus musculus [11]": {"test_system": "Mus musculus", "assay": "Toxicity in db/db mouse BKS.Cg-Dock7m+/+ Leprdb/J assessed as dyslipidemia by measuring effect on cholesterol level at 15 to 60 mg/kg, po administered daily for 5 weeks", "format": "organism-based", "settings": "in vivo, 840 h"}, "Mus musculus [12]": {"test_system": "Mus musculus", "assay": "Toxicity in C57BL/6J mouse assessed as decrease in fasting blood glucose level at 200 mg/kg, po administered as single dose measured over 6 hrs", "format": "organism-based", "settings": "in vivo"}, "[13]": {"target": "T2, Hexokinase-4 (Rattus norvegicus) (UniProt P17712)", "T2 sequence (whole entry)": "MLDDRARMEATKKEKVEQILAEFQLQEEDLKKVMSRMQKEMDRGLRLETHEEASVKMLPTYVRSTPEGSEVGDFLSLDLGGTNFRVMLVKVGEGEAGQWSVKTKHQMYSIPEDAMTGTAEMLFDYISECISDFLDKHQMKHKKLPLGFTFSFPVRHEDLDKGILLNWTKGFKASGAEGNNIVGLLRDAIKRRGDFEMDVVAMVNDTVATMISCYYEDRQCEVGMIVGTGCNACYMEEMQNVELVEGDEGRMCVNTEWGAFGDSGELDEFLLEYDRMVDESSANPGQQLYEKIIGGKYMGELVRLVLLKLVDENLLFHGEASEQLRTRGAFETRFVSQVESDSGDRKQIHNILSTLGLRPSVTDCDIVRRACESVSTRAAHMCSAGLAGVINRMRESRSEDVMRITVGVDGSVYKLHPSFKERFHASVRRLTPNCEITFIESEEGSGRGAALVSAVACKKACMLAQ", "assay": "Activation of glucokinase in rat INS1(832/13) cells assessed as increase in glucose sensitive insulin secretion at 20 uM after 2 hrs in presence of 5.5 mM glucose by AlphaLISA method relative to control", "format": "cell-based"}, "Mus musculus [14]": {"test_system": "Mus musculus", "assay": "Antidiabetic activity in po dosed db/db mouse BKS.Cg-Dock7m+/+ Leprdb/J assessed as reduction in glucose excursion administered daily for 5 weeks measured up to 120 mins after over night fasting at fourth week by OGTT method", "format": "functional, organism-based"}, "[15]": {"assay": "Half life in Sprague-Dawley rat at 10 mg/kg, po by LC-MS/MS analysis", "format": "ADME, organism-based", "settings": "in vivo"}, "[16]": {"assay": "AUC (0 to infinity) in Sprague-Dawley rat at 10 mg/kg, po by LC-MS/MS analysis", "format": "ADME, organism-based", "set-up": "dose 10 mg/kg, time infinity, route oral", "settings": "in vivo"}}, "note": "Activity calls are given as the source filed them. The rule behind the calls is not given here.", "data": [{"compound": "COC[C@H](C)Oc1cc(Oc2ccc(C(=O)N3CCC3)cc2)cc(C(=O)Nc2nc3c(s2)CN(C(=O)OC(C)(C)C)CC3)c1", "values": [{"measurement": "EC50", "setting": "Hexokinase-4 [1]", "value": 160, "unit": "nM"}, {"measurement": "Activity", "setting": "Mus musculus [2]", "value": "Active"}, {"measurement": "Activity", "setting": "Mus musculus [3]", "value": "Non-Toxic"}, {"measurement": "EC50", "setting": "Hexokinase-4 [4]", "value": 50, "unit": "nM"}, {"measurement": "EC50", "setting": "INS1(832/13) [5]", "value": 490, "unit": "nM"}, {"measurement": "Activity", "setting": "Mus musculus [6]", "value": "Non-Toxic"}, {"measurement": "Activity", "setting": "INS1(832/13) [7]", "value": 161, "unit": "%"}, {"measurement": "Activity", "setting": "Hepatocyte", "value": 15, "unit": "%"}, {"measurement": "Tmax", "setting": "[8]", "value": 34.8, "unit": "min"}, {"measurement": "Activity", "setting": "Mus musculus [9]", "value": "Active"}, {"measurement": "Activity", "setting": "Mus musculus [10]", "value": "Active"}, {"measurement": "Activity", "setting": "Mus musculus [11]", "value": "Non-Toxic"}, {"measurement": "Activity", "setting": "Mus musculus [12]", "value": "Non-Toxic"}, {"measurement": "fold change (FC)", "setting": "[13]", "value": 2.69}, {"measurement": "Activity", "setting": "Mus musculus [14]", "value": "Dose-dependent effect"}, {"measurement": "half-life", "setting": "[15]", "value": 30, "unit": "min"}, {"measurement": "AUC(0-inf)", "setting": "[16]", "value": 7580, "unit": "ng·h/mL"}]}]}
